According to patent US20050159599A1, “Cyclic compound, process for producing the same, and pest control agent” (priority 2002, published 2005):

Columns and labels:
[1] = test system: Plutella xylostella; assay: Insecticidal effect for Plutella xylostella by immersion treatment of host crop (Test Example 1); assay type: in vivo; details: cabbage leaf dipped, second-instar larvae of Plutella xylostella, fifth day after; for pest or weed control at 100 ppm: foliar, 120 h, read-out: rate of dead pests (%)
Method in brief: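 Cabbage leaf discs dipped in 100 ppm compound (acetone/Tween 20, diluted in sticker water), dried, then infested with ten second-instar larvae and kept at 24° C. Survivors counted on day 5; mortality expressed as dead/tested pests ×100.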

[2] = test system: Spodoptera litura; assay: Insecticidal effect for Spodoptera litura by spraying treatment to host crop (Test Example 2); assay type: in vivo; details: 100 ppm, sprayed on soybean, third-instar larvae of Spodoptera litura, fifth day after; for pest or weed control at 100 ppm: 120 h, read-out: rate of dead pests (%)
Method in brief: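 Ten third-instar larvae held at 25° C. on two excised primary soybean leaves previously sprayed to dripping with 100 ppm test solution. Mortality (%) calculated from dead versus tested larvae on the fifth day.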

[3] = test system: Plutella xylostella; assay: Insecticidal effect for Plutella xylostella by immersion treatment of host crop root (Test Example 3); assay type: in vivo; details: 25 ppm, cabbage root immersed 5 days, ten second-instar larvae on stem and leaves, counted on the fifth day, 24° C.; for pest or weed control at 25 ppm: Plutella xylostella, 120 h, read-out: rate of dead pests (%)
Method in brief: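 Washed roots of 4-leaf-stage cabbage immersed in 25 ppm compound solution (acetone/Tween 20 in water) for 5 days. Cut stems and leaves then fed to ten second-instar larvae at 24° C; mortality counted after a further 5 days as dead/tested ×100.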

[4] = test system: Spodoptera litura; assay: Insecticidal effect for Spodoptera litura by immersion treatment of host crop root (Test Example 4); assay type: in vivo; details: 25 ppm, soybean root immersion 5 days, second-instar larvae of Spodoptera litura, fifth day after; for pest or weed control at 25 ppm: 120 h, read-out: rate of dead pests (%)
Method in brief: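 Soil was washed from the roots of soybean plants at the primary-leaf stage, and the roots were immersed in a pesticidal solution held in a light-shielded 100 ml Erlenmeyer flask. The solution was made from acetone containing Tween 20, diluted with ion-exchange water. Five days after root immersion, two primary leaves were cut and placed in a 180 ml cup with ten second-instar Spodoptera litura larvae, then kept at 25° C. Survivors were counted five days later. The rate of dead pests (%) was calculated as dead pests divided by test pests, times 100.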

[5] = test system: Plutella xylostella; assay: Pest control effect for Plutella xylostella by plant seedling foot soil surface irrigation treatment, 24th day (Test Example 6); assay type: in vivo; details: 20 mg/plant; soil surface irrigation of cabbage; larvae counted on the 24th day
Procedure: (§1) Pest Control Effect for Plutella xylostella by Plant Seedling Foot Soil Surface Irrigation Treatment With Pesticidal Solution
(§2) A pesticidal solution which was prepared by dissolving 20 mg of test compound (represented by the compound Nos. in the above Examples) in 0.2 ml of acetone containing Tween 20 (trade name) and then diluting to 3 ml with ion-exchange water, was irrigated on the plant foot soil surface of 2.5-leave stage cabbage. This cabbage plant was transplanted to 1/5000a pot, and left in a facility wherein imagoes of Plutella xylostella were set free to lay eggs successively. On the 24th day after, the number of lavae on the plant was examined. The rate of pest control was calculated by the following formula. rate of pest control (%)=(1−number of pests in treated plant/number of pests in non-treated-plant)×100

[6] = test system: Plutella xylostella; assay: Pest control effect for Plutella xylostella by plant seedling foot soil surface irrigation treatment, 30th day (Test Example 7); assay type: in vivo; details: 20 mg/plant; soil surface irrigation of cabbage; larvae counted on the 30th day
Procedure: as §1
as §2, with “30th” for “24th”, “non-treated plant)×100” for “non-treated-plant)×100”

[7] = test system: Plutella xylostella; assay: Insecticidal effect for Plutella xylostella by seed treatment (Test Example 8); assay type: in vivo; details: cabbage seed treatment, leaves cut 31st day after sowing, first-instar larvae, third day after
Procedure: Insecticidal Effect for Plutella xylostella by Seed Treatment 4% aqueous solution of PVA (polyvinylalcohol) was applied to seeds of cabbage. Then the seeds were powdered with test compound (represented by the compound Nos. in the above Examples), and sowed in a Φ 6 cm in diameter Jiffy Pot (trade name). On the 31th day after sowing, the stem and leaves were cut off, and were put into an ice cream cup (180 ml). Fifteen first-instar larvae of Plutella xylostella were set free therein, and the cup was left in a temperature-controlled breeding room (24° C.). On the third day after, the number of surviving Plutella xylostella was examined. The rate of dead pests was calculated by the following formula. rate of dead pests (%)=(number of dead pests/number of test pests)×100

## C[S+]([O-])c1ccc(N2COCN(C(=O)c3c(F)cccc3F)C2=O)c(F)c1 (stereo not drawn) [I-29]
[1]; 100 ppm
  rate of dead pests (%): 100%
[2]
  rate of dead pests (%): 100%
[3]
  rate of dead pests (%): 100%
[4]
  rate of dead pests (%): 100%
[5]
  rate of pest control (%): 92%

## O=C(c1c(F)cccc1F)N1COCN(c2ccc([S+]([O-])C(F)F)cc2F)C1=O (stereo not drawn) [I-42, 3-(2,6-difluorobenzoyl)-5-[4-(difluoromethylsulfinyl)-2-fluorophenyl]tetrahydro-4H-1,3,5-oxadiazin-4-one]
[1]
  pest or weed control at 100 ppm: 100%
[2]
  pest or weed control at 100 ppm: 100%
[3]
  pest or weed control at 25 ppm: 100%
[4]
  pest or weed control at 25 ppm: 100%
[6]
  rate of pest control (%): 94%

## O=C(c1c(F)cccc1F)N1COCN(c2ccc(SC(F)(F)F)cc2F)C1=O [I-44, 3-(2,6-difluorobenzoyl)-5-[2-fluoro-4-(trifluoromethylthio)phenyl]tetrahydro-4H-1,3,5-oxadiazin-4-one]
[1]
  pest or weed control at 100 ppm: 100%
[2]
  pest or weed control at 100 ppm: 100%
[3]
  pest or weed control at 25 ppm: 100%
[4]
  pest or weed control at 25 ppm: 100%
[6]
  rate of pest control (%): 96%
[7]; 1 mg/seed
  rate of dead pests (%): 100%
[7]; 5 mg/seed
  rate of dead pests (%): 97%

## O=C(c1c(F)cccc1F)N1COCN(c2ccc([S+]([O-])C(F)(F)F)cc2F)C1=O (stereo not drawn) [I-45, 3-(2,6-difluorobenzoyl)-5-[2-fluoro-4-(trifluoromethylsulfinyl)phenyl]tetrahydro-4H-1,3,5-oxadiazin-4-one]
[2]
  pest or weed control at 100 ppm: 100%
[4]
  pest or weed control at 25 ppm: 100%
[6]
  rate of pest control (%): 98%

## O=C(c1c(F)cccc1F)N1COCN(c2ccc([S+]([O-])C(F)(C(F)(F)F)C(F)(F)F)cc2F)C1=O (stereo not drawn) [I-159, 3-(2,6-difluorobenzoyl)-5-[2-fluoro-4-(1,1,1,2,3,3,3-heptafluoro-2-propylsulfinyl)phenyl]tetrahydro-4H-1,3,5-oxadiazin-4-one]
other
  melting point: 40 to 45 °C

## O=C(c1c(F)cccc1F)N1CSCN(c2ccc(Cl)cc2)C1=O [II-1, 3-(4-chlorophenyl)-5-(2,6-difluorobenzoyl)tetrahydro-4H-1,3,5-thiadiazin-4-one]
other
  melting point: 128.5 to 130.5 °C

## O=C(c1c(F)cccc1F)N1C[S+]([O-])CN(c2ccc(Cl)cc2)C1=O (stereo not drawn) [II-2, 3-(4-chlorophenyl)-5-(2,6-difluorobenzoyl)tetrahydro-4H-1,3,5-thiadiazin-4-one-1-oxide]
other
  melting point: 220 to 220.5 °C

## O=C(c1c(F)cccc1F)N1CS(=O)(=O)CN(c2ccc(Cl)cc2)C1=O [II-3, 3-(4-chlorophenyl)-5-(2,6-difluorobenzoyl)tetrahydro-4H-1,3,5-thiadiazin-4-one-1,1-dioxide]
other
  melting point: 274 to 275 °C

## CC(C)N1CN(C(=O)c2c(F)cccc2F)C(=O)N(c2ccc(Cl)cc2)C1 [III-3, 1-(4-chlorophenyl)-3-(2,6-difluorobenzoyl)-5-isopropyltetrahydro-1,3,5-triazin-2(1H)-one]
other
  melting point: 130 to 131 °C

## CN1CN(C(=O)c2c(F)cccc2F)C(=O)N(c2ccc(SC(F)(F)F)cc2F)C1 [III-160, 1-(2,6-difluorobenzoyl)-3-[2-fluoro-4-(trifluoromethylthio)phenyl]-5-methyltetrahydro-1,3,5-triazin-2(1H)-one]
[1]
  pest or weed control at 100 ppm: 100%
[2]
  pest or weed control at 100 ppm: 100%
[3]
  pest or weed control at 25 ppm: 90%
[6]
  rate of pest control (%): 91%

## CN1CN(C(=O)c2c(F)cccc2F)C(=O)N(c2ccc([S+]([O-])C(F)(F)F)cc2F)C1 (stereo not drawn) [III-164, 1-(2,6-difluorobenzoyl)-3-[2-fluoro-4-(trifluoromethylsulfinyl)phenyl]-5-methyltetrahydro-1,3,5-triazin-2(1H)-one]
[1]
  pest or weed control at 100 ppm: 100%
[2]
  pest or weed control at 100 ppm: 100%
[4]
  pest or weed control at 25 ppm: 100%
[6]
  rate of pest control (%): 95%
